# Source: patent publication US12115224B2, “Polypeptide conjugates for intracellular delivery of stapled peptides” (Ohio State Innovation Foundation, priority 2017, dated 2024)
# Numbered stars: 1 amine (or outer) side, 2 acyl side, 3 side chain; on linkers, the order of the positions; unused ones are H or OH. Bridge positions count the residues as written; N and C are the ends. Square brackets hold non-standard residues; d marks the D form. Peptide text beside a SMILES is read from it. I, II: the chains in the order shown. * marks the point of attachment. FITC = O=C1OC2(c3ccc(O)cc3Oc3cc(O)ccc32)c2ccc(NC(=S)*)cc21; 2Nal = N[C@@H](Cc1ccc2ccccc2c1)C(=O)O; NF = 5(6)-carboxynaphthofluorescein; CH2COCH2 = O=C(C[*:1])C[*:2]; hCys = N[C@@H](CCS)C(=O)O; AEEA = NCCOCCOCC(=O)O; βAla = NCCC(=O)O
# Assays:
# [1] = system: SJSA-1 cells; test: Annexin V/propidium iodide flow cytometry assay; type: cell-based; conditions: 48-hour treatment, 10% FBS
# Description: The percentage of Annexin V+/PI+ and Annexin V+/PI− SJSA-1 cells after 48-hour treatment of inhibitors in presence of 10% FBS was measured.
# The mode of action (MOA) of CPP9-sPDI upon cytosolic delivery of the MDM2 inhibitor was also considered. […] This behavior is similar to Nutlin-3a, which is known to induce p53-dependent apoptosis in certain cancer cell lines. In this study, the percentage of Annexin V+/PI+ and Annexin V+/PI− SJSA-1 cells is determined after 48-hour treatment of inhibitors in presence of 10% FBS.
# [2] = Aqueous solubility (observation)
# [3] = system: HCT116 p53+/+; test: MTT viability assay, HCT116 WT p53; type: cell-based, human; conditions: 0-12.5 μM, 48 h, 10% FBS
# Description: (§1) Peptides 4 and 5 were tested for anticancer activity against human colon carcinoma cell lines harboring WT (HCT116 p53+/+) and mutant p53 genes (HCT116 p53−/−) using the MTT viability assay. […] See Vassilev, L. T., et al., Science, 303, 844-848 (2004).
# (§2) MTT Assay. HCT116 p53 wild type and HCT116 p53^−/− cells were seeded in 96-well plate with 3×10^3 cells per well, and allowed to grow overnight. Different concentrations of peptides (0-12.5 μM) were added to the cells in McCoy's 5A medium supplemented with 10% FBS and 1% penicillin/streptomycin and incubated at 37° C. for 48 h in the presence of 5% CO2. After that, 10 μL of an MTT stock solution (5 mg/mL) was added into each well and the plate was incubated at 37° C. for 4 h. 100 μL of SDS-HCl solubilizing solution was added and the plate was incubated at 37° C. overnight. The absorbance of the formazan product formed was measured at 570 nm on a Tecan microtiter plate reader.
# [4] = system: HCT116 p53−/−; test: MTT viability assay, HCT116 p53-/-; type: cell-based, human; conditions: 0-12.5 μM, 48 h, 10% FBS
# Description: as §1, §2
# [5] = cited from earlier work
molecule,measurement,setting,value
CC(=O)N[C@@H](CC(C)C)C(=O)N[C@H](C(=O)N[C@@H](Cc1ccccc1)C(=O)N[C@H]1CC(=O)NCCCC[C@@H](C(=O)N[C@@H](CCC(N)=O)C(=O)N[C@@H](CC(C)C)C(=O)N[C@H](C(=O)N[C@@H](CO)C(=O)NCCOCCOCC(=O)N[C@@H](CCCCNC(=O)CC[C@@H]2NC(=O)[C@@H](CCCNC(=N)N)NC(=O)[C@H](CCCNC(=N)N)NC(=O)[C@@H](CCCNC(=N)N)NC(=O)[C@H](CCCNC(=N)N)NC(=O)[C@H](Cc3ccc4ccccc4c3)NC(=O)[C@@H](Cc3ccccc3)NC2=O)C(N)=O)[C@@H](C)O)NC(=O)[C@H](Cc2c[nH]c3ccccc23)NC(=O)[C@H](Cc2ccc(O)cc2)NC(=O)[C@H](Cc2c[nH]cn2)NC1=O)[C@@H](C)O [Peptide 23] (I: Ac-LTFDHYWKQLTS[AEEA]K-NH2 / II: cyclo([2Nal]R[dR]R[dR]E[dF]); lactam I:4-I:8; amide I:14-II:6),mode of anti-proliferative action (Annexin V+/PI+ and Annexin V+/PI− cells),[1],mediated by apoptotic pathways
NF-βA-TYRGAAQCAAQCVREV-NH2 ({NF-βAla}-TYRGAAQCAAQCVREV-NH2; bridge 8-12; not fully specified (bridges)) [Peptide 20],aqueous solubility,[2],limited solubility
"COc1ccc(C2=N[C@@H](c3ccc(Cl)cc3)[C@@H](c3ccc(Cl)cc3)N2C(=O)N2CCNC(=O)C2)c(OC(C)C)c1 [Nutlin-3, reference compound]",effect on viability of WT p53 cells,[3],selectively killed the WT p53 cells in a dose-dependent manner
CC(=O)N[C@@H](CC(C)C)C(=O)N[C@H](C(=O)N[C@@H](Cc1ccccc1)C(=O)N[C@H]1CCSCC(=O)CSCC[C@@H](C(=O)N[C@@H](CCC(N)=O)C(=O)N[C@@H](CC(C)C)C(=O)N[C@H](C(=O)N[C@@H](CO)C(=O)NCCOCCOCC(=O)N[C@@H](CCCCNC(=S)Nc2ccc3c(c2)C(=O)OC32c3ccc(O)cc3Oc3cc(O)ccc32)C(N)=O)[C@@H](C)O)NC(=O)[C@H](Cc2c[nH]c3ccccc23)NC(=O)[C@H](Cc2ccc(O)cc2)NC(=O)[C@H](Cc2c[nH]cn2)NC1=O)[C@@H](C)O [Peptide 2] (Ac-LTF[hCys]HYW[hCys]QLTS[AEEA]K(FITC)-NH2; linker 4-8 via CH2COCH2),effect on viability of WT p53 cells,[3],no significant effect
same,effect on viability of p53 mutant cells,[4],no significant effect
5(6)-carboxynaphthofluorescein [NF],pKa,[5],7.8
